Tests used:
[1] = system: Bacillus subtilis oxalate decarboxylase (OxDc); details: even under a condition of an ideal pH value; read-out: Kin value; cited from earlier work
[2] = biological target: Agrocybe aegerita glycosylated oxalate decarboxylase (OxDc), naturally expressed by acid induction; test: Determination of Km of Agrocybe aegerita oxalate decarboxylase by double reciprocal method; oxalate degradation by HPLC, 37° C.; type: biochemical
Procedure: In this invention, high performance liquid chromatography (HPLC) is used to determine the activity of oxalate decarboxylase. The operation process is as follows: preheating 1.0 mL 5 mM (mmol/L) oxalate solution (25 mM citrate buffer solution contained, pH 3.0) at 37° C. for 10 min and adding 0.01-0.1 ml (added volume is adjusted according to enzyme concentration) solution containing oxalate decarboxylase or fungus powder suspension into the oxalate solution for reaction; adding 50 μL 2.5M (molar concentration) H2SO4 to inactivate the enzyme after reacting for 30 minutes; quickly centrifuging the reaction solution and collecting supernatant to determine the concentration of residual oxalate by using HPLC. One enzyme activity unit (U) is defined as the required enzyme amount to degrade 1 micromole oxalate per minute on this condition.
The enzyme activity of the purified glycosylated oxalate decarboxylase obtained in Embodiment 2 was determined at pH 3.0, and the result is shown in Table 1. […] Different enzyme batches show the Kin value between 0.03 and 1.0 mM at different pH (pH 2.5-6.0), and the average Kin value at optimal pH range of pH 2.5-3.0 is 0.06 mM, as is shown in Table 2.

O=C(O)C(=O)O [oxalate]
Km [1]: 4000 µM
Kin value (average at optimal pH) ([2]; optimal pH range pH 2.5-3.0): 0.06 mM
Km ([2]; pH 3.0-3.5): 120 ± 40 µM
Km ([2]; pH 3.5-4.0): 200 ± 30 µM
Km ([2]; pH 4.0-4.5): 250 ± 80 µM
Km ([2]; pH 4.5-5.0): 360 ± 130 µM
Km ([2]; pH 5.0-6.0): 700 ± 300 µM

Reference: patent US11085033B2, “Glycosylated oxalate decarboxylase and preparation and application thereof” (WUHAN KANGFUDE BIOTECHNOLOGY CO., LTD., priority 2016, dated 2021)
